Source: patent publication US20030134863A1, “Preventives/remedies for alzheimer's disease” (priority 2000, published 2003)
Entries after “also recorded” stand apart in the source; their conditions may differ.

Key:
LH, FSH concentrations = conditions: patients of Alzheimer's disease, clinical test; cited from earlier work
blood LH = assay: Suppression of blood LH in castrated monkeys; format: in vivo, cynomolgus monkeys (Macaca fascicularis); conditions: castrated male cynomolgus monkeys
Source text: Suppression of blood LH in castrated monkeys
5-(N-Benzyl-N-methylaminomethyl)-1-(2,6-difluorobenzyl)-6-[4-(3-methoxyureido)phenyl]-3-phenythieno[2,3-d]pyrimidine-2,4(1H,3H)-dione hydrochloride was orally administered to castrated male cynomolgus monkeys (Macaca fascicularis), and blood LH was quantified. The male cynomolgus monkeys, used at 4 years 9 months to 6 years 3 months of age at time of experimentation, had been castrated more than 3 months prior to the examination. Test animals [n=3] were given 30 mg/kg (3 ml/kg) of 5-(N-benzyl-N-methylaminomethyl)-1-(2,6-difluorobenzyl)-6-[4-(3-methoxyureido)phenyl]-3-phenylthieno[2,3-d]pyrimidine-2,4(1H,3H)-dione hydrochloride suspended in 0.5% methylcellulose at a final concentration of 1% by oral administration, and control test animals [n=2] were given 3 ml/kg of the 0.5% methylcellulose dispersant alone by oral administration. At 24 hours and immediately before administration and at 2, 4, 6, 8, 24, and 48 hours after administration, blood was collected for heparinized plasma samples via the femoral vein and immediately stored under freezing conditions.
Plasma LH concentrations were determined by a bioassay using mouse testicular cells. The testicular cells were collected from male BALB/c mice (8 to 9 weeks of age) and washed three times with 1 ml of Dulbecco's modified Eagle medium (DMEM-H) containing 20 mM HEPES and 0.2% BSA per testis. After incubation at 37° C. for 1 hour, the cells were passed through a nylon mesh (70 μm) and dispensed at 8×10^5 cells/tube. After the cells were washed twice with 0.4 ml of DMEM-H, 0.4 ml of a DMEM-H solution containing either equine LH (Sigma), as the standard LH, or monkey plasma, finally diluted up to 300 fold, as the test sample, was added, followed by a reaction at 37° C. for 2 hours. The testosterone concentration in the culture supernatant was determined by a radioimmunoassay (CIS Diagnostics), and the LH concentration in the test monkey plasma was calculated from the standard curve for the standard equine LH. […]

Structure (SMILES)	LH, FSH concentrations (LH, FSH concentrations)	progress of Alzheimer's disease (LH, FSH concentrations)	blood LH concentration relative to the value immediately before administration (blood LH; 30 mg/kg oral in 0.5% methylcellulose, in 24 hours after administration, n=3) [%]	blood LH concentration at 48 hours after administration (blood LH; 30 mg/kg oral, 48 hours after administration)	effect on blood LH concentration (in words) (blood LH; 30 mg/kg oral, hydrochloride, 30 mg/kg)
CCNC(=O)[C@@H]1CCCN1C(=O)[C@H](CCCNC(=N)N)NC(=O)[C@H](CC(C)C)NC(=O)[C@@H](CC(C)C)NC(=O)[C@H](Cc1ccc(O)cc1)NC(=O)[C@H](CO)NC(=O)[C@H](Cc1c[nH]c2ccccc12)NC(=O)[C@H](Cc1c[nH]cn1)NC(=O)[C@@H]1CCC(=O)N1 [Leuplin]	lowers the LH, FSH concentrations	inhibits the progress of Alzheimer's disease			
CONC(=O)Nc1ccc(-c2sc3c(c2CN(C)Cc2ccccc2)c(=O)n(-c2ccccc2)c(=O)n3Cc2c(F)cccc2F)cc1.Cl [5-(N-benzyl-N-methylaminomethyl)-1-(2,6-difluorobenzyl)-6-[4-(3-methoxyureido)phenyl]-3-phenylthieno[2,3-d]pyrimidine-2,4(1H,3H)-dione hydrochloride]			≤ 20	re-elevation of the blood LH concentration was noted	rapid fall beginning immediately after administration; also recorded: significant decreasing effect on blood LH concentration
